What all share (format): cell-based
The subject of assay [1] is A. baumannii G-165. The experiment in a line: Antibacterial activity of sulbactam / Cefepime combinations with a compound of the invention (MIC). The settings on record: Acinetobacter baumannii. As to the method:
(§1) The biological activity of representative compounds according to the invention against various bacterial strains was investigated. In a typical study, overnight grown bacterial cultures were diluted appropriately and inoculated on the agar media containing doubling dilutions of the test compounds. Observation for growth or no growth was performed after 16-20 hours of incubation at 35±2° C. in ambient air. The overall procedure was performed as per Clinical and Laboratory Standards Institute (CLSI) recommendations (Clinical and Laboratory Standards Institute (CLSI), Performance Standards for Antimicrobial Susceptibility Testing, 20th Informational Supplement, M 100-S20, Volume 30, No. 1, 2010).

The subject of assay [2] is A. baumannii S-334. Described as above. To be noted: Acinetobacter baumannii. As to the method: as §1
Assay [3] relates to A. baumannii J-143. Described as above. The settings on record: Acinetobacter baumannii. As to the method:
as §1

Assay [4] deals with A. baumannii 1460648. The description is as above. Here is the method: as §1
Assay [5] relates to E. Coli H 484. The experiment in a line: Antibacterial activity (MIC) against MDR Gram negative strains. To be noted: Escherichia coli; Table 4; E. Coli H 484, Class C ESBL, MDR; read-out: MIC. As to the method: as §1
(§2) The activities are expressed as MICs (mcg/ml).

The test system of assay [6] is K penumoniae H 523. Described as above. To be noted: Table 4; K penumoniae H 523, KPC ESBL, MDR; read-out: MIC. Here is the method:
as §1, §2

The subject of assay [7] is P. aeruginosa Ps 21. The description is as above. To be noted: Pseudomonas aeruginosa, PS21; Table 5; P. aeruginosa Ps 21; read-out: MIC. Here is the method: as §1, §2
Assay [8] deals with E. Coli M 3. Described as above. The settings on record: Escherichia coli; Table 5; E. Coli M 3, Class B ESBL, MDR; read-out: MIC. Here is the method:
as §1, §2

The test system of assay [9] is K penumoniae H 525. The assay is described as above. To be noted: Table 4; K penumoniae H 525, KPC ESBL, MDR; read-out: MIC. Here is the method:
as §1, §2

In assay [10] the test system is P. aeruginosa Ps 32. The description is as above. The settings on record: Pseudomonas aeruginosa, PS32; Table 5; P. aeruginosa Ps 32; read-out: MIC. Here is the method: as §1, §2
Assay [11] deals with E. Coli W 13351. The assay is described as above. To be noted: Escherichia coli; Table 4; E. Coli W 13351, Class A ESBL, MDR; read-out: MIC. Here is the method: as §1, §2
The subject of assay [12] is E. Coli W 13352. The assay is described as above. The settings on record: Escherichia coli; Table 4; E. Coli W 13352, Class A ESBL, MDR; read-out: MIC. As to the method:
as §1, §2

Assay [13] has as its system K penumoniae H 521. Described as above. The settings on record: Table 4; K penumoniae H 521, KPC ESBL, MDR; read-out: MIC. Here is the method:
as §1, §2

Assay [14] concerns P. aeruginosa ATCC 27853. The description is as above. The settings on record: Pseudomonas aeruginosa, ATCC27853; Table 5; P. aeruginosa ATCC 27853; read-out: MIC. Here is the method:
as §1, §2

For assay [15], the system named is K. penumoniae S 48. Described as above. To be noted: Table 5; K. penumoniae S 48, Class B ESBL, MDR; read-out: MIC. Here is the method:
as §1, §2

Assay [16] relates to E. Coli M 44. Described as above. To be noted: Escherichia coli; Table 5; E. Coli M 44, Class B ESBL, MDR; read-out: MIC. As to the method: as §1, §2
The subject of assay [17] is E. Coli W 13353. The description is as above. To be noted: Escherichia coli; Table 4; E. Coli W 13353, Class A ESBL, MDR; read-out: MIC. As to the method: as §1, §2
Assay [18] concerns E. Coli B 89. The assay is described as above. The settings on record: Escherichia coli; Table 4; E. Coli B 89, Class C ESBL, MDR; read-out: MIC. As to the method:
as §1, §2

The subject of assay [19] is E. coli NCTC 13351. The experiment in a line: Antibacterial activity (MIC), agar dilution per CLSI. The settings on record: Escherichia coli, NCTC13351, Table 3, E. coli NCTC 13351 expressing ESBL, 16-20 hours, 35±2° C., read-out: MIC. The procedure, abridged: (§3)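 Agar dilution MIC per CLSI: overnight cultures diluted and inoculated onto agar containing doubling dilutions of compound. Growth/no growth read after 16-20 h at 35±2° C in ambient air. Strains express ESBL.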
(In general: In agar dilution, organisms are placed on agar that contains the substance at set levels.)

Assay [20] deals with E. coli 7 MP. The description is as above. The settings on record: Escherichia coli, Table 3, E. coli 7 MP expressing ESBL, read-out: MIC. The procedure, abridged:
as §3

The test system of assay [21] is E. coli M 50. Described as above. To be noted: Escherichia coli, read-out: MIC. A digest of the protocol: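 MIC values (mcg/ml) are the lowest compound level on agar showing no growth. Each strain, taken from an overnight culture and diluted, is inoculated onto media carrying doubling dilutions of compound, then incubated for 16-20 hours at 35±2° C. without added CO2.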

[22] abbreviates: M50, Table 3, E. coli M 50 expressing ESBL, agar dilution.
Where [23] appears, read: M50, Table 4, E. Coli M 50, Class C ESBL, MDR.

Data on six compounds can be found in patent publication US9381200B2, “Nitrogen containing compounds” (WOCKHARDT LIMITED, priority 2011, dated 2016).

Each structure is given as a SMILES string. Values after ≈ are worked out from the molar mass of the structure shown. Like-named read-outs stand apart in the source and are kept apart here. Some results are limits rather than exact numbers.

On to `CC1(C)[C@H](C(=O)O)N2C(=O)C[C@H]2S1(=O)=O` [Sulbactam, sulbactam], for which the MIC (usually the least concentration at which growth counts as inhibited) in assay [1] (G165, read-out: MIC of sulbactam) came to 32 µg/mL; in [1] (G165, read-out: Standalone MIC) it was 32 µg/mL; in assay [2] (S334, read-out: MIC of sulbactam) it was 32 µg/mL; in [2] (S334, read-out: Standalone MIC), 32 µg/mL; in assay [3] (J143, read-out: MIC of sulbactam), 32 µg/mL; in [3] (J143, read-out: Standalone MIC), 32 µg/mL. In addition, the MIC in assay [4] (Acinetobacter baumannii, 1460648, read-out: MIC of sulbactam) turned out to be 32 µg/mL; in assay [4] (Acinetobacter baumannii, 1460648, read-out: Standalone MIC), 32 µg/mL.
For the compound `CO/N=C(\C(=O)N[C@@H]1C(=O)N2C(C(=O)[O-])=C(C[N+]3(C)CCCC3)CS[C@H]12)c1csc(N)n1` [Cefepime], the MIC in assay [1] (G165, Table 8, A. baumannii G-165, Cefepime alone or with sulbactam and/or compound at fixed concentrations as named in the composition, read-out: MIC of Cefepime) was more than 32 µg/mL; in assay [2] (S334, Table 8, A. baumannii S-334, Cefepime alone or with sulbactam and/or compound at fixed concentrations as named in the composition, read-out: MIC of Cefepime), 32 µg/mL; in [3] (J143, Table 8, A. baumannii J-143, Cefepime alone or with sulbactam and/or compound at fixed concentrations as named in the composition, read-out: MIC of Cefepime) it was more than 32 µg/mL; in assay [4] (Acinetobacter baumannii, Table 8, A. baumannii 1460648, Cefepime alone or with sulbactam and/or compound at fixed concentrations as named in the composition, read-out: MIC of Cefepime) it was more than 32 µg/mL.
On to `O=C(NNC(=O)[C@@H]1CC[C@@H]2CN1C(=O)N2OS(=O)(=O)O)[C@@H]1CCCNC1` [Example 2, trans-sulfuric acid mono-[2-(N′—[(R)-piperidin-3-carbonyl]-hydrazinocarbonyl)-7-oxo-1,6-diaza-bicyclo[3.2.1]oct-6-yl]ester], for which the MIC in assay [5] worked out at 0.12 µg/mL (≈ 0.307 µM); in [6] it was 1 µg/mL (≈ 2.55 µM); in assay [7], 8 µg/mL (≈ 20.4 µM); in assay [8], 2 µg/mL (≈ 5.11 µM); in assay [9] it was 0.5 µg/mL (≈ 1.28 µM); in assay [10] it was 8 µg/mL (≈ 20.4 µM). Also, the MIC in [11] was found to be 0.25 µg/mL (≈ 0.639 µM); in [12], 0.25 µg/mL (≈ 0.639 µM); in assay [13], 0.5 µg/mL (≈ 1.28 µM); in assay [14] it was 8 µg/mL (≈ 20.4 µM); in assay [15], 0.5 µg/mL (≈ 1.28 µM); in assay [16], 0.5 µg/mL (≈ 1.28 µM). In addition, the MIC was 0.12 µg/mL (≈ 0.307 µM) in [17]; 0.25 µg/mL (≈ 0.639 µM) in assay [18]; 0.25 µg/mL (≈ 0.639 µM) in assay [19]; 1 µg/mL (≈ 2.55 µM) in assay [20]; 0.25 µg/mL (≈ 0.639 µM) in assay [21] (setting [22]); 0.25 µg/mL (≈ 0.639 µM) in assay [21] (setting [23]). For the same compound, the MIC in assay [1] (G165, footnotes of Tables 7 and 8, A. baumannii G-165, substance used alone, read-out: Standalone MIC) was more than 32 µg/mL; in assay [2] (S334, footnotes of Tables 7 and 8, A. baumannii S-334, substance used alone, read-out: Standalone MIC), more than 32 µg/mL; in assay [3] (J143, footnotes of Tables 7 and 8, A. baumannii J-143, substance used alone, read-out: Standalone MIC), more than 32 µg/mL; in assay [4] (Acinetobacter baumannii, footnotes of Tables 7 and 8, A. baumannii 1460648, substance used alone, read-out: Standalone MIC), more than 32 µg/mL.
On to `N#CCC(=O)NNC(=O)[C@@H]1CC[C@@H]2CN1C(=O)N2OS(=O)(=O)[O-].[Na+]` [Example 43, Sodium salt of trans-sulfuric acid mono-[2-(N′-(cyano-acetyl)-hydrazinocarbonyl)-7-oxo-1,6-diaza-bicyclo[3.2.1]oct-6-yl]ester], for which the MIC in assay [5] was 8 µg/mL; in [6] it was 1 µg/mL; in [7] it was more than 32 µg/mL; in [8] it was 4 µg/mL; in assay [9] it was 1 µg/mL; in assay [10], more than 32 µg/mL. Moreover, the MIC in [11] is 1 µg/mL; in [12], 1 µg/mL; in assay [13] it was 2 µg/mL; in assay [14] it was more than 32 µg/mL; in assay [15], 1 µg/mL; in [16], 0.5 µg/mL. Also, the minimal inhibitory concentration (MIC) in assay [17] came out at 1 µg/mL; in [18] it was 1 µg/mL; in assay [19], 1 µg/mL; in [20], 8 µg/mL; in assay [21] (setting [22]), 2 µg/mL; in assay [21] (setting [23]) it was 1 µg/mL.
For the compound `O=C(NNC(=O)[C@@H]1CC[C@@H]2CN1C(=O)N2OC(F)(F)C(=O)O)[C@@H]1CCCNC1` [Example 5, trans-difluoro-{7-oxo-2-[N′—((R)-piperidin-3-carbonyl)-hydrazinocarbonyl]-1,6-diaza-bicyclo[3.2.1]-oct-6-yloxy}-acetic acid], the MIC is 1 µg/mL (≈ 2.47 µM) in [5]; 1 µg/mL (≈ 2.47 µM) in [6]; more than 32 µg/mL in assay [7]; 1 µg/mL (≈ 2.47 µM) in [8]; 2 µg/mL (≈ 4.93 µM) in assay [9]; more than 32 µg/mL in [10]. Also, the MIC is 0.25 µg/mL (≈ 0.617 µM) in [11]; 0.5 µg/mL (≈ 1.23 µM) in assay [12]; 1 µg/mL (≈ 2.47 µM) in [13]; more than 32 µg/mL in assay [14]; 2 µg/mL (≈ 4.93 µM) in assay [15]; 0.5 µg/mL (≈ 1.23 µM) in [16]. Besides, the MIC in [17] was 0.5 µg/mL (≈ 1.23 µM); in [18], 0.5 µg/mL (≈ 1.23 µM); in [19], 0.25 µg/mL (≈ 0.617 µM); in assay [20] it was 0.5 µg/mL (≈ 1.23 µM); in [21] (setting [22]), 0.25 µg/mL (≈ 0.617 µM); in assay [21] (setting [23]), 1 µg/mL (≈ 2.47 µM).
Consider `NCCC(=O)NNC(=O)[C@H]1CC[C@@H]2CN1C(=O)N2OS(=O)(=O)O` (relative stereo) [Example 8, trans-sulfuric acid mono-[2-(N′-(3-amino-propioyl)-hydrazinocarbonyl)-7-oxo-1,6-diaza-bicyclo[3.2.1]oct-6-yl]ester], for which the MIC in assay [5] was 2 µg/mL (≈ 5.69 µM); in assay [6], 0.5 µg/mL (≈ 1.42 µM); in assay [7] it was 16 µg/mL (≈ 45.5 µM); in [8], 4 µg/mL (≈ 11.4 µM); in assay [9], 1 µg/mL (≈ 2.85 µM); in [10], 8 µg/mL (≈ 22.8 µM). Moreover, the MIC in assay [11] was found to be 1 µg/mL (≈ 2.85 µM); in assay [12], 1 µg/mL (≈ 2.85 µM); in [13] it was 1 µg/mL (≈ 2.85 µM); in assay [14] it was 8 µg/mL (≈ 22.8 µM); in [15], 1 µg/mL (≈ 2.85 µM); in [16], 0.5 µg/mL (≈ 1.42 µM). The MIC in assay [17] is 1 µg/mL (≈ 2.85 µM); in [18], 1 µg/mL (≈ 2.85 µM); in assay [19] it was 1 µg/mL (≈ 2.85 µM); in assay [20], 2 µg/mL (≈ 5.69 µM); in [21] (setting [22]), 1 µg/mL (≈ 2.85 µM); in assay [21] (setting [23]), 1 µg/mL (≈ 2.85 µM).
